In article PMC3130732, “E. coli Histidine Triad Nucleotide Binding Protein 1 (ecHinT) Is a Catalytic Regulator of D-Alanine Dehydrogenase (DadA) Activity In Vivo” (PLoS ONE, 2011):

Biological target: T1, E. coli Histidine Triad Nucleotide Binding Protein 1 (ecHinT) (Escherichia coli, UniProt P0ACE7)
T1 construct: gene hinT
Experiment: spectrophotometric phosphoramidase assay
Format: biochemical

T1 sequence (P0ACE7 whole entry): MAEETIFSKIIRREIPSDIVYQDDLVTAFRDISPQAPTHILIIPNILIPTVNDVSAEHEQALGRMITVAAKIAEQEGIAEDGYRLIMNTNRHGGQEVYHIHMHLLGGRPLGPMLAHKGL

`Nc1nc2c(ncn2[C@@H]2O[C@H](COC(=O)NCCc3c[nH]c4ccccc34)[C@@H](O)[C@H]2O)c(=O)[nH]1` [TpGc, 5′-O-[(3-indolyl)-1-ethyl]carbamoyl guanosine] showed a Ki of 42 µM.
